Active and inactive are the calls of the source. The rule behind the calls is not given here.
What was measured:
[1] = test system: Bordetella pertussis; assay: Effect on Bordetella pertussis adenylyl cyclase
[2] = test system: Maize streak virus; assay: Antiviral activity against MSV; assay type: functional
[3] = test system: Hepatitis C virus; assay: Antiviral activity against HCV; assay type: functional, organism-based; details: Hepacivirus hominis
[4] = test system: Human immunodeficiency virus; assay: Antiviral activity against HIV; assay type: functional, organism-based
[5] = Inhibition of recombinant Plasmodium vivax HGXPRT expressed in Escherichia coli by spectrophotometric analysis
[6] = molecular target: T1, Hypoxanthine-guanine phosphoribosyltransferase (Homo sapiens, UniProt P00492); assay: Inhibition of recombinant human HGPRT expressed in Escherichia coli Sphi606 cells by spectrophotometric analysis
T1 sequence (P00492 whole entry): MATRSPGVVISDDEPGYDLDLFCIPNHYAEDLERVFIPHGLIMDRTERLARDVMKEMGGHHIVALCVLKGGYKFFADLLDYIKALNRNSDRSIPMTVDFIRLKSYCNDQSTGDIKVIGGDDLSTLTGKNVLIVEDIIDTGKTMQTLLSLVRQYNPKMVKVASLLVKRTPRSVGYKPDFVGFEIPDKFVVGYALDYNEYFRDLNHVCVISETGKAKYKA

[7] = Inhibition of recombinant Plasmodium falciparum HGXPRT expressed in Escherichia coli Sphi606 cells by spectrophotometric analysis

| Structure (SMILES) | Activity [1] | Ki [6] | Activity [2] | Activity [3] | Activity [4] | Ki [5] | Ki [7] |
| --- | --- | --- | --- | --- | --- | --- | --- |
| Nc1nc(N)c2ncn(CC(CF)OCCP(=O)(O)O)c2n1 (stereo unspecified) | inactive | – | inactive | inactive | inactive | – | – |
| Nc1ncnc2c1ncn2CC(CF)OCCP(=O)(O)O (stereo unspecified) | inactive | – | inactive | inactive | inactive | – | – |
| Nc1nc(O)c2ncn(C[C@@H](CF)OCP(=O)(O)O)c2n1 | – | ≥ 250 µM | – | – | – | ≥ 250 µM | ≥ 250 µM |
| Nc1nc(O)c2ncn(C[C@H](CF)OCP(=O)(O)O)c2n1 | – | ≥ 300 µM | – | – | – | ≥ 300 µM | ≥ 300 µM |
| O=c1[nH]cnc2c1ncn2C[C@@H](CF)OCP(=O)(O)O | – | ≥ 250 µM | – | – | – | ≥ 250 µM | 13 µM |
| Nc1nc(NC2CC2)c2ncn(CC(CF)OCCP(=O)(O)O)c2n1 (stereo unspecified) | inactive | – | inactive | inactive | inactive | – | – |

The next lines start with results.

| Activity [1] | Ki [6] | Structure (SMILES) | Activity [2] | Activity [3] | Activity [4] | Ki [5] | Ki [7] |
| --- | --- | --- | --- | --- | --- | --- | --- |
| inactive | 1.6 µM | O=c1[nH]cnc2c1ncn2C[C@@H](CF)OCCP(=O)(O)O | inactive | inactive | inactive | ≥ 300 µM | ≥ 300 µM |
| inactive | 4.7 µM | Nc1nc2c(ncn2C[C@H](CF)OCCP(=O)(O)O)c(=O)[nH]1 | inactive | inactive | inactive | 29 µM | 1 µM |
| inactive | 5.4 µM | O=c1[nH]cnc2c1ncn2CC(CF)OCCP(=O)(O)O (racemic) | inactive | inactive | inactive | ≥ 100 µM | ≥ 200 µM |
| – | ≥ 200 µM | O=c1[nH]cnc2c1ncn2C[C@H](CF)OCP(=O)(O)O | – | – | – | ≥ 200 µM | 63 µM |
| inactive | 3.7 µM | Nc1nc2c(ncn2CC(CF)OCCP(=O)(O)O)c(=O)[nH]1 (racemic) | inactive | inactive | inactive | 7 µM | 1 µM |
| inactive | ≥ 200 µM | O=c1[nH]cnc2c1ncn2C[C@H](CF)OCCP(=O)(O)O | inactive | inactive | inactive | ≥ 200 µM | ≥ 200 µM |
| inactive | 0.1 µM | Nc1nc2c(ncn2C[C@@H](CF)OCCP(=O)(O)O)c(=O)[nH]1 | inactive | inactive | inactive | 3.4 µM | 1.2 µM |
